Reference: patent publication US7642058B2, “Method and apparatus for characterization of interactions” (GE Healthcare Bio-Sciences AB, priority 2003, dated 2010)

What was measured:
HSA = HSA (Homo sapiens, UniProt P02768)
anti-maltose antibody [1] = experiment: Conventional SPR affinity assay, maltose on immobilized anti-maltose antibody; format: binding; settings: 12 injections 0 to 1500 μM, 25° C.
Method: In order to compare the results obtained with pulse injections to results obtained with the conventional method, 12 maltose injections of concentrations ranging from 0 to 1500 μM were performed. The injection time was 15 sec. Data was evaluated from a Req versus C plot using the BIAevaluation software.

anti-maltose antibody [2] = experiment: Pulse injection SPR steady state affinity, maltose on immobilized anti-maltose antibody; settings: read-out: average KD; pulse injection method, 25° C., initial concentrations 0.05 and 0.1 mM
Method: Roughly the same amount of another antibody, anti-AFP, was immobilized in a reference flowcell in order to minimise errors in reference subtraction due to the high immobilization level. These two proteins were immobilized using the “amine coupling” procedure as follows: HBS-EP was used as running buffer with a constant flow rate of 5 μl/min. After activation for 12 min. with EDC, target (anti-maltose or anti-AFP, 50 μg/ml in 10 mM sodium acetate, pH 5.0) was injected for 7 min., followed by a 12-min. deactivation. Immobilization and all measurements on the surface were performed at 25° C.
Samples of different initial concentrations (0.05 and 0.1 mM) were injected over the surface. The association and dissociation phases of each pulse were 12 seconds. […] Each experiment started with a blank run, i.e., a series of pulses of running buffer alone. The concentration of the first pulse, C1, was assumed to be equal to the concentration in the vial. […]
Response levels were obtained by taking the average of 10 data points at equilibrium. […] The constant multi-concentration pulse series were evaluated with a non-linearly fitted Req versus C plot, whereby KA, KD and Rmax values were obtained directly from the software.

HSA, sequence (P02768 25-609 limits assumed): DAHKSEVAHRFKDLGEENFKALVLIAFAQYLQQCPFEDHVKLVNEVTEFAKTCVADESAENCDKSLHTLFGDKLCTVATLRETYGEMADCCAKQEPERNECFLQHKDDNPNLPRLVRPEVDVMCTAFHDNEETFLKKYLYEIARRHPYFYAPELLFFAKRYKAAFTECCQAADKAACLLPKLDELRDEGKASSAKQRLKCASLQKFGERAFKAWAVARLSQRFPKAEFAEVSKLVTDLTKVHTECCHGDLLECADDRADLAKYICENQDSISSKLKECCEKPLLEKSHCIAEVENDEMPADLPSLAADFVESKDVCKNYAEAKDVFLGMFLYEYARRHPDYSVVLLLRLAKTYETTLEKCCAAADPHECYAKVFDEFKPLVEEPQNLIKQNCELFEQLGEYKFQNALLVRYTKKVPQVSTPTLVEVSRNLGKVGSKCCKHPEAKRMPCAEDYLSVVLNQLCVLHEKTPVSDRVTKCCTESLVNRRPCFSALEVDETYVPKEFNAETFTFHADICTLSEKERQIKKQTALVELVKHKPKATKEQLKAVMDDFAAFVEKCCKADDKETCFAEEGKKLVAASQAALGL

SMILES | site competition on HSA, pair digitoxin and warfarin (HSA) | Kd (anti-maltose antibody [1]) [mM] | Kd (anti-maltose antibody [2]) [mM]
C[C@H]1O[C@@H](O[C@H]2[C@@H](O)C[C@H](O[C@H]3[C@@H](O)C[C@H](O[C@H]4CC[C@@]5(C)[C@H](CC[C@@H]6[C@@H]5CC[C@]5(C)[C@@H](C7=CC(=O)OC7)CC[C@]65O)C4)O[C@@H]3C)O[C@@H]2C)C[C@H](O)[C@@H]1O [Digitoxin, digitoxin] | non-competitive binders | – | –
OC[C@H]1O[C@H](O[C@H]2[C@H](O)[C@@H](O)C(O)O[C@@H]2CO)[C@H](O)[C@@H](O)[C@@H]1O (mixture of isomers) [maltose] | – | 8.5 | 9
